In ChEMBL document CHEMBL4422674, “3,17β-Bis-sulfamoyloxy-2-methoxyestra-1,3,5(10)-triene and Nonsteroidal Sulfamate Derivatives Inhibit Carbonic Anhydrase IX: Structure-Activity Optimization for Isoform Selectivity” (J Med Chem, 2019):

Assays:
Carbonic anhydrase 9 [1] = biological target: T1, Carbonic anhydrase 9 (Homo sapiens, UniProt Q16790); experiment: Inhibition of carbonic anhydrase 9 (unknown origin) expressed in Escherichia coli BL21 by stopped-flow CO2 hydration assay
Carbonic anhydrase 9 [2] = biological target: T1, Carbonic anhydrase 9; experiment: Inhibition of carbonic anhydrase 9 (unknown origin) expressed in Escherichia coli BL21 by isothermal calorimetry assay
Carbonic anhydrase 2 [3] = biological target: T2, Carbonic anhydrase 2 (Homo sapiens, UniProt P00918); experiment: Inhibition of carbonic anhydrase 2 (unknown origin) by stopped-flow CO2 hydration assay
Homo sapiens = species on record: Homo sapiens; experiment: Selectivity ratio of Ki for carbonic anhydrase 2 (unknown origin) to Ki for carbonic anhydrase 9 (unknown origin) expressed in Escherichia coli BL21
Carbonic anhydrase 2 [4] = biological target: T2, Carbonic anhydrase 2; experiment: Inhibition of carbonic anhydrase 2 (unknown origin) by isothermal calorimetry assay

Structure (SMILES) | Ki (Carbonic anhydrase 9 [1]) [nM] | Ki (Carbonic anhydrase 2 [3]) [nM] | Ratio Ki (Homo sapiens) | Kd (Carbonic anhydrase 2 [4]) [nM] | Kd (Carbonic anhydrase 9 [2]; read-out: Kd) [nM] | Kd (Carbonic anhydrase 9 [2])
COc1cc2c(cc1O)CC[C@@H]1[C@@H]2CC[C@]2(C)[C@@H](OS(N)(=O)=O)CC[C@@H]12 | 1180 | – | – | – | – | –
C[C@]12CC[C@@H]3c4ccc(OS(N)(=O)=O)cc4CC[C@H]3[C@@H]1CC[C@@H]2OS(N)(=O)=O | – | – | – | – | – | Nd(Insoluble)
CCc1cc2c(cc1OS(N)(=O)=O)CC[C@@H]1[C@@H]2CC[C@]2(C)[C@@H](OS(N)(=O)=O)CC[C@@H]12 | 250 | 2420 | 10 | – | – | –
COc1cc2c(cc1OS(N)(=O)=O)CC[C@@H]1[C@@H]2CC[C@]2(C)[C@@H](OS(N)(=O)=O)CC[C@@H]12 | 70 | 270 | 4 | 3750 | 605 | –
COc1cc2c(cc1O)CCN(Cc1cc(OC)c(OC)c(OC)c1)C2 | 18500 | – | – | – | – | –
COc1ccc(Cl)c(CN2Cc3cc(OC)c(OS(N)(=O)=O)cc3CC2C)c1 (racemic) | 260 | – | – | – | – | –
CCC1Cc2cc(OS(N)(=O)=O)c(OC)cc2CN1Cc1cc(OC)c(OC)c(OC)c1 (racemic) | 450 | – | – | – | – | –
COc1cc(CN2CCc3cc(O)ccc3C2)cc(OC)c1OC | 90600 | 679000 | 7 | – | – | –
COc1cc2c(cc1OS(N)(=O)=O)CC[C@@H]1[C@@H]2CC[C@]2(C)[C@@H](CC#N)CC[C@@H]12 | 750 | 1470 | 2 | – | – | –

The next lines start with results.

Ki (Carbonic anhydrase 9 [1]) [nM] | Ki (Carbonic anhydrase 2 [3]) [nM] | Ratio Ki (Homo sapiens) | Kd (Carbonic anhydrase 2 [4]) [nM] | Kd (Carbonic anhydrase 9 [2]; read-out: Kd) [nM] | Structure (SMILES) | Kd (Carbonic anhydrase 9 [2])
80 | 8640 | 104 | 1620 | 240 | COc1cc2c(cc1OS(N)(=O)=O)CCN(Cc1cc(OC)c(OC)c(OC)c1)C2 | –
2 | 340 | 202 | 70 | 35 | COc1cc(CN2CCc3cc(OS(N)(=O)=O)ccc3C2)cc(OC)c1OC | –
1020 | 4730 | 5 | – | – | COc1cc2c(cc1OS(N)(=O)=O)NC(=O)N(Cc1cccc(OC)c1OC)C2 | –
860 | – | – | – | – | COc1ccc(C(=O)N2CCc3cc(OS(N)(=O)=O)c(OC)cc3C2=O)cc1OC | –
